# Source: patent publication US9035048B2, “Tetrahydrotriazine compounds for treating diseases associated with AMPK activity” (POXEL, priority 2008, dated 2015)
# Entries after “also recorded” stand apart in the source; their conditions may differ.
# Experiments:
# [1] = test system: synaptopodin (G1D4); assay: Glomerular synaptopodin (G1D4) fraction in the kidney of ZDF rats; type: in vivo, rat; settings: ZDF fatty rats, age 19 weeks; for Glomerular synaptopodin (G1D4) fraction, Positive Area (%): 2 × 25 mg/kg/d p.o., mean ± SEM
# Method: Synaptopodin (G1D4) was detected with a monoclonal mouse IgG antibody (#61094, Progen). For each rat, 40 glomeruli out of two consecutive sections were selected at random. The synaptopodin (G1D4) positive area in the mesangium was measured with the Ariol SL-50 automated microscope (Applied Imaging Int. Ltd.) scanning sections at X20 (scale x/y: 1 pixel=0.36×0.36 μm^2) and setting a circular measure field of 2400 μm^2 in the centre of the glomerulus. The positive labeled area of synaptopodin (G1D4) was calculated as percentage of tissue area in the measure field. For each animal, the mean out of 40 glomeruli was calculated. Statistical comparisons were performed by unpaired Mann-Whitney-test. Data are mean±SEM.
# The antibody clone G1D4 recognized differentiated podocytes (glomerular visceral epithelial cells).
# [2] = test system: human micro-vascular endothelial cells (HMEC-1); assay: ROS production in HMEC-1; type: cell-based
# Method: (§1) The efficacy of 5,6-dihydro-4-dimethylamino-2-imino-6-methyl-1,3,5-triazine was tested if once administrated (50 mg/kg/day) to drinking water of fasted Wistar rats for at least 10 days. This approach was more physiological than subcutaneous injection at elevated dose. […] The effect was observed both in rat liver (FIG. 4) and in human micro-vascular endothelial cells (HMEC; Table 2).
# [3] = test system: AMPK; assay: AMPK activation in muscle cells; type: cell-based; settings: different doses, FIG. 2
# [4] = test system: ROS production linked to the reverse electron flux through complex I; assay: ROS production in rat liver after oral administration; type: in vivo; settings: fasted Wistar rats, 50 mg/kg/day in drinking water for at least 10 days, succinate alone or with glutamate/malate
# Method: as §1
# [5] = test system: AMPK; assay: AMPK activation in hepatocyte cells; type: cell-based; settings: different doses, FIG. 1
# Text: The AMPK activation in hepatocytes is given in the gel electrophoresis pictures. The supplemental diagram visualizes the degree of AMPK activation in hepatocytes quantitatively.
# [6] = ob/ob and db/db mice, 8 day administration; cited from earlier work
AMPK activation in hepatocytes [5],Structure (SMILES),glomerular fraction of synaptopodin (effect of treatment in words) [1],"Glomerular synaptopodin (G1D4) fraction, Positive Area (%) [1] [%]","ROS production, H2O2 ([2]; substrate GMS, additions: None)","ROS production, H2O2 ([2]; substrate GMS, additions: Rot + antimycin A (AA))","ROS production, H2O2 ([2]; substrate GMS, additions: Rotenone (Rot))","ROS production, H2O2 ([2]; substrate Glutamate + Malate (GM), additions: None)","ROS production, H2O2 ([2]; substrate Glutamate + Malate (GM), additions: Rot + antimycin A (AA))","ROS production, H2O2 ([2]; substrate Glutamate + Malate (GM), additions: Rotenone (Rot))","ROS production, H2O2 ([2]; substrate Succinate (S), additions: None)","ROS production, H2O2 ([2]; substrate Succinate (S), additions: Rot + antimycin A (AA))","ROS production, H2O2 ([2]; substrate Succinate (S), additions: Rotenone (Rot))",AMPK activity in muscle cells [3],ROS production linked to the reverse electron flux through complex I [4],reduction of blood glucose [6] [%]
significant activation of AMPK,"CC1NC(=N)N=C(N(C)C)N1 (centres unmarked) [EMD008, 5,6-dihydro-4-dimethylamino-2-imino-6-methyl-1,3,5-triazine]",moderately increased,45 ± 3,15.7 ± 1.4 pmol/min/10^7 HMEC-1 cells,18.6 ± 1.3 pmol/min/10^7 HMEC-1 cells,6.9 ± 1.1 pmol/min/10^7 HMEC-1 cells,28.4 ± 2.2 pmol/min/10^7 HMEC-1 cells,51.4 ± 8.7 pmol/min/10^7 HMEC-1 cells,37.5 ± 1.5 pmol/min/10^7 HMEC-1 cells,14.5 ± 1.3 pmol/min/10^7 HMEC-1 cells,19.1 ± 3.2 pmol/min/10^7 HMEC-1 cells,11.4 ± 2.7 pmol/min/10^7 HMEC-1 cells,significantly increased AMPK activity; also recorded: dose dependent and even stronger than metformin's effect,time-dependently inhibited the ROS production,
,"CN(C)C(=N)NC(=N)N [Metformin, reference compound]",no effect,38 ± 4,,,,,,,,,,,,
,"NC(=O)c1ncn([C@@H]2O[C@H](CO)[C@@H](O)[C@H]2O)c1N [AICAR, 5-aminoimidazole-4-caboxamide-1beta-riboside]",,,,,,,,,,,,,,35
